The record followed here is patent publication US10023610B2, “Ligands for prevention of neurotoxicity of the alzheimer's disease related amyloid-beta peptide” (AlphaBeta AB, priority 2014, dated 2018).

Test [1] deals with T1, Aβ1-42 (Homo sapiens, UniProt P05067).
T1 construct: Samples of Aβ1-42 peptide (5 μM) alone or mixed with 5 or 25 μM of each ligand
Put plainly: Electron microscopy of fibril formation from Aβ1-42 in the presence of ligands. The conditions noted are these: Aβ1-42 5 μM with 5 or 25 μM ligand, 37° C., 9 hours. It counts as biochemical. As to the method: Samples of Aβ1-42 peptide (5 μM) alone or mixed with 5 or 25 μM of each ligand in a volume of 100 μl, were incubated at 37° C. for 9 hours. Aliquotes of 2 μl were taken from the different samples, adsorbed on copper grids and negatively stained with 2.5% uranyl acetate in 50% ethanol. The samples were examined and photographed using a Hitachi H7100 microscope operated at 75 kV.

Test [2] relates to kainate-induced gamma oscillations. The test can be described thus: Control: ligands alone on kainate-induced gamma oscillations in hippocampal slices (absence of Aβ). It counts as cell-based, C57BL/6 mice. As to the method: (§1) Experiments were carried out in accordance with ethical permit granted by Norra Stockholms Djurförsöksetiska Nämnd to AF (N45/13). C57BL/6 mice of either sex (postnatal days 14-23, supplied from Charles River, Germany) were used in all experiments. The animals were deeply anaesthetized using isofluorane before being sacrificed by decapitation.
(§2) The brain was dissected out and placed in ice-cold ACSF (artificial cerebrospinal fluid) modified for dissection. This solution contained (in mM); 80 NaCl, 24 NaHCO3, 25 Glucose, 1.25 NaH2PO4, 1 Ascorbic acid, 3 NaPyruvate, 2.5 KCl, 4 MgCl2, 0.5 CaCl2, 75 Sucrose. Horizontal sections (350 μm thick) of the ventral hippocampi of both hemispheres were prepared with a Leica VT1200S vibratome (Microsystems, Stockholm, Sweden). Immediately after slicing sections were transferred to a submerged incubation chamber containing standard ACSF (in mM): 124 NaCl, 30 NaHCO3, 10 Glucose, 1.25 NaH2PO4, 3.5 KCl, 1.5 MgCl2, 1.5 CaCl2. The chamber was held at 34° C. for at least 20 minutes after dissection. It was subsequently allowed to cool to ambient room temperature (19-22° C.) for a minimum of 40 minutes. Peptides were added to the incubation solution 15 minutes before transferring slices to the interface-style recording chamber. While incubating slices were continuously supplied with carbogen gas (5% CO2, 95% O2) bubbled into the ACSF. Chemical compounds used in intracellular and extracellular solutions were obtained from Sigma-Aldrich Sweden AB (Stockholm, Sweden). The Kainic acid was obtained from Tocris.
(§3) Recordings were carried out in hippocampal area CA3 with borosilicate glass microelectrodes, pulled to a resistance of 3-7 MO. Local field potentials (LFP) were recorded at 34° C. using microelectrodes filled with ACSF placed in stratum pyramidale. LFP oscillations were elicited by applying kainic acid (100 nM) to the extracellular bath. The oscillations were allowed to stabilize for 20 minutes before any recordings were carried out. LFP recordings were performed with a 4 channel amplifier/signal conditioner M102-amplifier (Electronics lab, Faculty of Mathematics and Natural Sciences, University of Cologne, Cologne, Germany). The signals were sampled at 10 kHz, conditioned using a Hum Bug 50 Hz noise eliminator (Quest Scientific, North Vancouver, BC, Canada), software low-pass filtered at 1 kHz, digitized and stored using a Digidata 1322A and Clampex 9.6 software (Molecular devices, CA, USA).
(§4) Power spectral density plots (from 60 s long LFP recordings) were calculated in averaged Fourier-segments of 8192 points using Axograph X (Kagi, Berkeley, Calif., USA). Oscillation power was calculated by integrating the power spectral density between 20 and 80 Hz. Data is reported as means±standard errors of the means in the text and as median and upper/lower quartile in the figure box plots. For statistical analysis the Mann-Whitney U-test was used.

In test [3] the target is T1, Aβ1-42. Put plainly: Prevention of Aβ-induced decrease of kainate-induced gamma oscillations in hippocampal slices (LFP, area CA3). It counts as cell-based, C57BL/6 mice. As to the method: as §1, §2, §3, §4
The mark [4] stands for this setting: 50 nM ligand, equimolar (1:1) to 50 nM Aβ1-42, 15 min incubation.
Where [5] appears, read: 250 nM ligand with 50 nM Aβ, 15 min incubation.

Entries after “also recorded” stand apart in the source; their conditions may differ.

T1 sequence (P05067 672-713 limits assumed): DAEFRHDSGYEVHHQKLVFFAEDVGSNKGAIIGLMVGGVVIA

For `CCCCCCCC[C@H](N)CNCC[C@H](N)C(=O)N[C@H](CCN1C(=O)c2cccc3c(N(C)C)ccc(c23)C1=O)C(=O)NCC[C@@H](NC(=O)CCCC(=O)O)C(=O)O` [8AEDabDmnDabGla, HO-Gla-D-Dab-(COOH)-D-DMNA-L-Dap-(NH2)—CH2CH(NH2)—C8], the “fibril formation by Aβ1-42 (electron microscopy)” value (shortened to “fibril formation”) on Aβ1-42 [1] was “less fibrils”.
Consider `CCCCCCCCCC(=O)NCCNC[C@H](N)C(=O)N[C@H](Cc1c[nH]c2ccccc12)C(=O)NCC[C@@H](NC(=O)CCCC(=O)O)C(=O)O` [DH18, (R)—N^4—[N^2—(N^3—(N-decanoyl-2-aminoethyl)-(S)-2,3-diaminopropionyl)-D-tryptophanyl]-N^2-glutanoyl-2,4-diaminobutanoic acid], for which, in test [2], the “effect of ligand alone on kainate-induced gamma oscillations” value (“effect of ligand alone” for short) was “no effect”.
Take `CCCCCCCCCC(=O)NCCNC[C@H](N)C(=O)N[C@H](CCN1C(=O)c2cccc3c(N(C)C)ccc(c23)C1=O)C(=O)NCC[C@@H](NC(=O)CCCC(=O)O)C(=O)O` [DH18_Dmn, HO-Gla-D-Dab-(COOH)-D-DMNA-L-Dap-(NH2)-AE-decanoyl]: the “effectiveness in preventing Aβ-induced degradation of network gamma oscillations compared with first generation ligands” value on Aβ1-42 [3] is “more effective than first generation ligands”. Further, at Aβ1-42 [3] (setting [4]), the “prevention of the Aβ-induced decrease of kainate-induced gamma oscillations” value was “complete prevention; also recorded: effective also at only a 1:1 ratio; also recorded: reverse Aβ-induced reduction of gamma oscillation; also recorded: prevention of Aβ-induced degradation of network gamma oscillations”. In addition, the “fibril formation” value on Aβ1-42 [1] was “less fibrils”. Besides, in test [2], the “effect of ligand alone” value is on record as “neither of these ligands had an effect”.
Take `NC(=O)CCCCCCCCCCC(=O)NCCNC[C@H](N)C(=O)N[C@H](Cc1c[nH]c2ccccc12)C(=O)NCC[C@@H](NC(=O)CCCC(=O)O)C(=O)O` [DH20, (R)—N^4—[N^2—(N^3—(N-(12-amino-12-oxododecanoyl)-2-aminoethyl)-(S)-2,3-diaminopropionyl)-D-tryptophanyl]-N^2-glutanoyl-2,4-diaminobutanoic acid]: on Aβ1-42 [3], the “effectiveness in preventing Aβ-induced degradation of network gamma oscillations compared with first generation ligands” value is reported as “more effective than first generation ligands”. Further, the “prevention of the Aβ-induced decrease of kainate-induced gamma oscillations” value on Aβ1-42 [3] (setting [4]) is reported as “complete prevention”; on Aβ1-42 [3] (50 nM ligand, equimolar (1:1) to 50 nM Aβ1-42, 15 min incubation, listed as DH-20), “effective also at only a 1:1 ratio; also recorded: reverse Aβ-induced reduction of gamma oscillation”; on Aβ1-42 [3] (setting [5]), “complete prevention; also recorded: reverses Aβ-induced reduction of gamma oscillation”. The “fibril formation” value at Aβ1-42 [1] is “less fibrils”. In addition, the “effect of ligand alone” value in test [2] is “neither of these ligands had an effect; also recorded: no effect”.
With `CCCCCCCCCC(=O)NCCNCCN` [Dec-DETA, reference compound], the “prevention of the Aβ-induced decrease of kainate-induced gamma oscillations” value on Aβ1-42 [3] (setting [5]) is given as “higher prevention”. Further, the “effect of ligand alone” value in test [2] was “neither of these ligands had an effect”.
Take `N=C(N)CCNCCCC(N)C(=O)NC(Cc1c[nH]c2ccccc12)C(=O)NCCC(NC(=O)CCCC(=O)O)C(=O)O` (centres unmarked) [Pep1b, reference compound]: the “prevention of the Aβ-induced decrease of kainate-induced gamma oscillations” value on Aβ1-42 [3] (setting [5]) is “only partial prevention”. In addition, the “fibril formation” value on Aβ1-42 [1] is given as “fibrils were formed but to somewhat lesser extent”. Further, the “effect of ligand alone” value in test [2] is recorded as “neither of these ligands had an effect”.
